# Laboratory results taken from patent USRE38117E1, “Trioxane dimer compound having antiproliferative and antitumor activities” (Hauser, Inc., priority 1995, dated 2003).
# How the values were obtained:
# Type in all cases: cell-based
# HL-60(TB) = assay: NCI 60 cell line screen (SRB), Leukemia; settings: HL-60(TB) (Leukemia)
# NCI-H460 = assay: NCI 60 cell line screen (SRB), Non-Small Cell Lung Cancer
# HCC-2998 = assay: NCI 60 cell line screen (SRB), Colon Cancer; settings: HCC-2998 (Colon Cancer)
# HCT-15 = assay: NCI 60 cell line screen (SRB), Colon Cancer; settings: HCT-15 (Colon Cancer)
# SF-539 = assay: NCI 60 cell line screen (SRB), CNS Cancer; settings: SF-539 (CNS Cancer)
# SNB-19 = assay: NCI 60 cell line screen (SRB), CNS Cancer; settings: SNB-19 (CNS Cancer)
# LOX IMVI = assay: NCI 60 cell line screen (SRB), Melanoma
# MALME-3M = assay: NCI 60 cell line screen (SRB), Melanoma; settings: MALME-3M (Melanoma)
# SK-MEL-2 = assay: NCI 60 cell line screen (SRB), Melanoma; settings: SK-MEL-2 (Melanoma)
# UACC-257 = assay: NCI 60 cell line screen (SRB), Melanoma; settings: UACC-257 (Melanoma)
# IGROVI = assay: NCI 60 cell line screen (SRB), Ovarian Cancer
# OVCAR-3 = assay: NCI 60 cell line screen (SRB), Ovarian Cancer; settings: OVCAR-3 (Ovarian Cancer)
# OVCAR-8 = assay: NCI 60 cell line screen (SRB), Ovarian Cancer; settings: OVCAR-8 (Ovarian Cancer)
# ACHN = assay: NCI 60 cell line screen (SRB), Renal Cancer
# RXF 393 = assay: NCI 60 cell line screen (SRB), Renal Cancer; settings: RXF 393 (Renal Cancer)
# SN12C = assay: NCI 60 cell line screen (SRB), Renal Cancer
# TK-10 = assay: NCI 60 cell line screen (SRB), Renal Cancer; settings: TK-10 (Renal Cancer)
# MCF7 = assay: NCI 60 cell line screen (SRB), Breast Cancer
# MCF7/ADR-RES = assay: NCI 60 cell line screen (SRB), Breast Cancer
# MDA-MB231/ATCC = assay: NCI 60 cell line screen (SRB), Breast Cancer
# BT-549 = assay: NCI 60 cell line screen (SRB), Breast Cancer; settings: BT-549 (Breast Cancer)
# EKVX = assay: NCI 60 cell line screen (SRB), Non-Small Cell Lung Cancer
# HOP-92 = assay: as above; settings: HOP-92 (Non-Small Cell Lung Cancer)
# NCI-H23 = assay: as above
# HS 578T = assay: NCI 60 cell line screen (SRB), Breast Cancer; settings: HS 578T (Breast Cancer)
smiles,measurement,setting,value
"CC(=O)O[C@H]1C(=O)[C@@]2(C)[C@H]([C@H](OC(=O)c3ccccc3)[C@]3(O)C[C@H](OC(=O)[C@H](O)[C@@H](NC(=O)c4ccccc4)c4ccccc4)C(C)=C1C3(C)C)[C@]1(OC(C)=O)CO[C@@H]1C[C@@H]2O [Paclitaxel, paclitaxel, reference compound]",Log10GI50,HL-60(TB),−11.57 M
same,Log10LC50,HL-60(TB),>−4.53 M
same,Log10TGI,HL-60(TB),−4.53 M
same,Log10GI50,NCI-H460,−12.16 M
same,Log10LC50,NCI-H460,>−4.00 M
same,Log10TGI,NCI-H460,−4.92 M
same,Log10GI50,HCC-2998,−12.34 M
same,Log10LC50,HCC-2998,−4.26 M
same,Log10TGI,HCC-2998,−4.77 M
same,Log10GI50,HCT-15,−6.37 M
same,Log10LC50,HCT-15,>−4.00 M
same,Log10TGI,HCT-15,>−4.00 M
same,Log10GI50,SF-539,−11.09 M
same,Log10LC50,SF-539,>−4.00 M
same,Log10GI50,SNB-19,−8.98 M
same,Log10LC50,SNB-19,>−4.00 M
same,Log10TGI,SNB-19,>−4.00 M
same,Log10GI50,LOX IMVI,−11.80 M
same,Log10LC50,LOX IMVI,>−4.15 M
same,Log10TGI,LOX IMVI,−4.65 M
same,Log10LC50,MALME-3M,−4.11 M
same,Log10TGI,MALME-3M,−4.46 M
same,Log10GI50,SK-MEL-2,−9.53 M
same,Log10LC50,SK-MEL-2,>−4.00 M
same,Log10GI50,UACC-257,−10.30 M
same,Log10LC50,UACC-257,−4.03 M
same,Log10TGI,UACC-257,−4.52 M
same,Log10GI50,IGROVI,−8.61 M
same,Log10LC50,IGROVI,>−4.00 M
same,Log10TGI,IGROVI,−4.19 M
same,Log10GI50,OVCAR-3,−10.40 M
same,Log10LC50,OVCAR-3,>−4.00 M
same,Log10TGI,OVCAR-3,−4.55 M
same,Log10GI50,OVCAR-8,−10.75 M
same,Log10LC50,OVCAR-8,>−4.00 M
same,Log10LC50,ACHN,−4.45 M
same,Log10TGI,ACHN,−4.90 M
same,Log10GI50,RXF 393,−8.32 M
same,Log10LC50,RXF 393,>−4.00 M
same,Log10TGI,RXF 393,>−4.00 M
same,Log10GI50,SN12C,−9.53 M
same,Log10LC50,SN12C,>−4.00 M
same,Log10GI50,TK-10,−7.89 M
same,Log10GI50,MCF7,−11.69 M
same,Log10LC50,MCF7,>−4.00 M
same,Log10GI50,MCF7/ADR-RES,−8.48 M
same,Log10LC50,MCF7/ADR-RES,>−4.00 M
same,Log10TGI,MCF7/ADR-RES,>−4.00 M
same,Log10GI50,MDA-MB231/ATCC,−8.54 M
same,Log10TGI,MDA-MB231/ATCC,−4.84 M
same,Log10GI50,BT-549,−9.31 M
same,Log10LC50,BT-549,>−4.00 M
same,Log10TGI,BT-549,−6.32 M
"C[C@@H]1CC[C@H]2[C@@H](C)C(=O)O[C@@H]3O[C@@]4(C)CC[C@@H]1[C@]32OO4 [QHS, 3,6,9-trimethyl-9,10b-epidioxyperhydropyrano[4,3,2-jk]benzoxepin-2-one, reference compound]",Log10GI50,HL-60(TB),−4.26 M
same,Log10LC50,HL-60(TB),>−4.00 M
same,Log10TGI,HL-60(TB),−4.00 M
same,Log10GI50,EKVX,>−4.00 M
same,Log10LC50,EKVX,>−4.00 M
same,Log10TGI,EKVX,>−4.00 M
same,Log10GI50,HOP-92,>−4.00 M
same,Log10LC50,HOP-92,>−4.00 M
same,Log10TGI,HOP-92,>−4.00 M
same,Log10GI50,NCI-H23,>−4.00 M
same,Log10LC50,NCI-H23,>−4.00 M
same,Log10TGI,NCI-H23,>−4.00 M
same,Log10GI50,NCI-H460,>−4.00 M
same,Log10LC50,NCI-H460,>−4.00 M
same,Log10TGI,NCI-H460,>−4.00 M
same,Log10GI50,HCC-2998,>−4.00 M
same,Log10LC50,HCC-2998,>−4.00 M
same,Log10TGI,HCC-2998,>−4.00 M
same,Log10GI50,HCT-15,>−4.00 M
same,Log10LC50,HCT-15,>−4.00 M
same,Log10TGI,HCT-15,>−4.00 M
same,Log10GI50,SNB-19,>−4.00 M
same,Log10LC50,SNB-19,>−4.00 M
same,Log10TGI,SNB-19,>−4.00 M
same,Log10LC50,MALME-3M,>−4.00 M
same,Log10TGI,MALME-3M,−4.06 M
same,Log10LC50,SK-MEL-2,>−4.00 M
same,Log10TGI,SK-MEL-2,>−4.00 M
same,Log10GI50,UACC-257,>−4.00 M
same,Log10LC50,UACC-257,>−4.00 M
same,Log10TGI,UACC-257,>−4.00 M
same,Log10GI50,IGROVI,−4.31 M
same,Log10LC50,IGROVI,>−4.00 M
same,Log10TGI,IGROVI,>−4.00 M
same,Log10GI50,OVCAR-8,>−4.00 M
same,Log10LC50,OVCAR-8,>−4.00 M
same,Log10TGI,OVCAR-8,>−4.00 M
same,Log10GI50,ACHN,>−4.00 M
same,Log10LC50,ACHN,>−4.00 M
same,Log10TGI,ACHN,>−4.00 M
same,Log10GI50,RXF 393,−4.08 M
same,Log10LC50,RXF 393,>−4.00 M
same,Log10TGI,RXF 393,>−4.00 M
same,Log10GI50,SN12C,−4.21 M
same,Log10LC50,SN12C,>−4.00 M
same,Log10TGI,SN12C,>−4.00 M
same,Log10GI50,TK-10,>−4.00 M
same,Log10LC50,TK-10,>−4.00 M
same,Log10TGI,TK-10,>−4.00 M
same,Log10GI50,MCF7,>−4.00 M
same,Log10LC50,MCF7,>−4.00 M
same,Log10TGI,MCF7,>−4.00 M
same,Log10GI50,MDA-MB231/ATCC,−4.20 M
same,Log10LC50,MDA-MB231/ATCC,>−4.00 M
same,Log10TGI,MDA-MB231/ATCC,−4.00 M
same,Log10GI50,HS 578T,>−4.00 M
same,Log10LC50,HS 578T,>−4.00 M
same,Log10TGI,HS 578T,>−4.00 M
same,Log10GI50,BT-549,−4.06 M
same,Log10LC50,BT-549,>−4.00 M
same,Log10TGI,BT-549,−4.00 M
